{"source": "patent US20240261272A1", "about": "“LPA1 ANTAGONISTS FOR TREATING INTERSTITIAL LUNG DISEASE” (Bristol-Myers Squibb Company, priority 2022, published 2024)", "key": {"[1]": {"experiment": "Phase 1 Part B multiple ascending dose (MAD) study in healthy participants: safety, blood pressure", "type": "in vivo, human", "design": "Mean DBP: unit not given here", "protocol": "(§1) The study was performed in 3 parts in 112 healthy male and female participants, including 24 Japanese participants. Female participants were to be not of childbearing potential. The present study was designed to evaluate the safety and tolerability, PK, and exploratory PD of an oral suspension of Compound A. Parts A and B (Cohort B1 only) enrolled healthy participants and was conducted at a site in The Netherlands and Part B (Cohort B2 to B5) enrolled healthy non-Japanese participants and was conducted at a site in the United Kingdom (UK). Part C enrolled healthy Japanese participants and was conducted at the same site in the UK.\nPart B was a MAD study in a planned number of 6 sequential dose escalation cohorts (10 mg QD, 30 mg QD, 30 mg BID, 60 mg BID, 125 mg BID, and ≤250 mg BID) of 8 healthy participants (6 active+2 placebo) each, under fasted conditions. However, Cohort B6 (≤250 mg BID) was cancelled because sufficient safety and PK data had been obtained at doses up to 125 mg BID. Eligible participants received study drug (Compound A or placebo) administered orally for 14 days.\n(§2) Physical examinations, vital sign measurements (including orthostasis testing in Cohort A6, Cohort B3 to B5, and C1 to C3 at selected time points), 12-lead electrocardiogram (ECG), and clinical laboratory evaluations were performed at selected times throughout the study. In addition, Holter monitoring was performed for the first 24 hours post dose on Day 1 in Part A (not in FE/pH cohort), and also for the first 24 hours post dose on Day 1 and Day 14 in Parts B and C. Participants were closely monitored for adverse events (AEs). Blood samples were collected for up to 14 days (follow-up visit) after (last) study drug administration for PK analysis. In addition, blood and urine were collected for exploratory biomarker assessments and for biobanking of samples for potential analyses. Urine was collected for potential PK analysis for up to 96 hours after a single dose of Compound A or placebo was administered in the SAD part, and for up to 24 hours after the first (morning) dose of study drug on Day 1 and for up to 24 hours after the last (morning) dose of study drug on Day 14 in the MAD parts."}, "[2]": {"experiment": "Phase 1 Part C MAD study in healthy Japanese participants: blood pressure", "type": "in vivo, human", "conditions": "for Maximum of Mean (±SD) Reduction in DBP from Baseline (Baseline): MAD Japanese Part C", "protocol": "as §1\nPart C was a MAD study in 3 sequential dose escalation cohorts (30 mg BID, 60 mg BID, and 90 mg BID) of 8 healthy Japanese participants (6 active+2 placebo) each. Eligible participants in Cohorts C1 to C3 received study drug (Compound A or placebo) administered orally for 14 days.\nas §2"}}, "data": [{"smiles": "CCCN(C)C(=O)OCc1c(-c2ccc(O[C@H]3CCC[C@H](C(=O)O)C3)c(C)n2)nnn1C", "note": "[Compound A, (1S,3S)-3-((2-methyl-6-(1-methyl-5-(((methyl(propyl)carbamoyl)-oxy)methyl)-1H-1,2,3-triazol-4-yl)pyridin-3-yl)oxy)cyclohexane-1-carboxylic acid]", "values": [{"measurement": "Mean DBP", "setting": "[1]; MAD 10 mg QD, D 1 2 h", "value": 70.2}, {"measurement": "Mean DBP", "setting": "[1]; MAD 10 mg QD, D 1 4 h", "value": 65.8}, {"measurement": "Mean DBP", "setting": "[1]; MAD 10 mg QD, D 1 8 h", "value": 68.7}, {"measurement": "Mean DBP", "setting": "[1]; MAD 10 mg QD, D 2 24 h", "value": 65.3}, {"measurement": "Mean DBP", "setting": "[1]; MAD 10 mg QD, D 14 312 h", "value": 69.3}, {"measurement": "Mean DBP", "setting": "[1]; MAD 10 mg QD, D 14 314 h", "value": 67.5}, {"measurement": "Mean DBP", "setting": "[1]; MAD 10 mg QD, D 14 317 h", "value": 64.3}, {"measurement": "Mean DBP", "setting": "[1]; MAD 10 mg QD, D 14 320 h", "value": 67.5}, {"measurement": "Mean DBP", "setting": "[1]; MAD 10 mg QD, D 15 336 h", "value": 66.8}, {"measurement": "Mean DBP", "setting": "[1]; MAD 30 mg BID, D 1 2 h", "value": 63.3}, {"measurement": "Mean DBP", "setting": "[1]; MAD 30 mg BID, D 1 4 h", "value": 62.7}, {"measurement": "Mean DBP", "setting": "[1]; MAD 30 mg BID, D 1 8 h", "value": 63.2}, {"measurement": "Mean DBP", "setting": "[1]; MAD 30 mg BID, D 2 24 h", "value": 66.7}, {"measurement": "Mean DBP", "setting": "[1]; MAD 30 mg BID, D 14 312 h", "value": 68.7}, {"measurement": "Mean DBP", "setting": "[1]; MAD 30 mg BID, D 14 314 h", "value": 63.8}, {"measurement": "Mean DBP", "setting": "[1]; MAD 30 mg BID, D 14 317 h", "value": 61.0}, {"measurement": "Mean DBP", "setting": "[1]; MAD 30 mg BID, D 14 320 h", "value": 617}, {"measurement": "Mean DBP", "setting": "[1]; MAD 30 mg BID, D 15 336 h", "value": 65.3}, {"measurement": "Mean DBP", "setting": "[1]; MAD 30 mg QD, D 1 2 h", "value": 66.5}, {"measurement": "Mean DBP", "setting": "[1]; MAD 30 mg QD, D 1 4 h", "value": 67.8}, {"measurement": "Mean DBP", "setting": "[1]; MAD 30 mg QD, D 1 8 h", "value": 66.0}, {"measurement": "Mean DBP", "setting": "[1]; MAD 30 mg QD, D 2 24 h", "value": 67.3}, {"measurement": "Mean DBP", "setting": "[1]; MAD 30 mg QD, D 14 312 h", "value": 63.3}, {"measurement": "Mean DBP", "setting": "[1]; MAD 30 mg QD, D 14 314 h", "value": 63.5}, {"measurement": "Mean DBP", "setting": "[1]; MAD 30 mg QD, D 14 317 h", "value": 61.8}, {"measurement": "Mean DBP", "setting": "[1]; MAD 30 mg QD, D 14 320 h", "value": 63.2}, {"measurement": "Mean DBP", "setting": "[1]; MAD 30 mg QD, D 15 336 h", "value": 62.3}, {"measurement": "Mean DBP", "setting": "[1]; MAD 60 mg BID, D 1 2 h", "value": 64.5}, {"measurement": "Mean DBP", "setting": "[1]; MAD 60 mg BID, D 1 4 h", "value": 66.0}, {"measurement": "Mean DBP", "setting": "[1]; MAD 60 mg BID, D 1 8 h", "value": 64.7}, {"measurement": "Mean DBP", "setting": "[1]; MAD 60 mg BID, D 2 24 h", "value": 65.7}, {"measurement": "Mean DBP", "setting": "[1]; MAD 60 mg BID, D 14 312 h", "value": 64.8}, {"measurement": "Mean DBP", "setting": "[1]; MAD 60 mg BID, D 14 314 h", "value": 64.0}, {"measurement": "Mean DBP", "setting": "[1]; MAD 60 mg BID, D 14 317 h", "value": 62.5}, {"measurement": "Mean DBP", "setting": "[1]; MAD 60 mg BID, D 14 320 h", "value": 63.0}, {"measurement": "Mean DBP", "setting": "[1]; MAD 60 mg BID, D 15 336 h", "value": 64.5}, {"measurement": "Mean DBP", "setting": "[1]; MAD 125 mg BID, D 1 2 h", "value": 62.3}, {"measurement": "Mean DBP", "setting": "[1]; MAD 125 mg BID, D 1 4 h", "value": 64.7}, {"measurement": "Mean DBP", "setting": "[1]; MAD 125 mg BID, D 1 8 h", "value": 64.7}, {"measurement": "Mean DBP", "setting": "[1]; MAD 125 mg BID, D 2 24 h", "value": 66.3}, {"measurement": "Mean DBP", "setting": "[1]; MAD 125 mg BID, D 14 312 h", "value": 62.0}, {"measurement": "Mean DBP", "setting": "[1]; MAD 125 mg BID, D 14 314 h", "value": 65.0}, {"measurement": "Mean DBP", "setting": "[1]; MAD 125 mg BID, D 14 317 h", "value": 59.2}, {"measurement": "Mean DBP", "setting": "[1]; MAD 125 mg BID, D 14 320 h", "value": 61.8}, {"measurement": "Mean DBP", "setting": "[1]; MAD 125 mg BID, D 15 336 h", "value": 63.0}, {"measurement": "BP reductions versus placebo (in words)", "setting": "[1]; MAD BID groups", "value": "no clear differences between placebo and the Compound A groups"}, {"measurement": "BP reduction dose dependence (in words)", "setting": "[2]; Japanese MAD cohorts", "value": "no clear Compound A dose-dependent BP reduction trend"}, {"measurement": "Maximum of Mean (±SD) Reduction in DBP from Baseline (Baseline)", "setting": "[2]; 30 mg BID (C1)", "value": "8.8 ± 5.12", "unit": "mmHg"}, {"measurement": "Maximum of Mean (±SD) Reduction in DBP from Baseline (Baseline)", "setting": "[2]; 60 mg BID (C2)", "value": "8.2 ± 10.40", "unit": "mmHg"}, {"measurement": "Maximum of Mean (±SD) Reduction in DBP from Baseline (Baseline)", "setting": "[2]; 90 mg BID (C2)", "value": "8.0 ± 8.22", "unit": "mmHg"}]}]}
